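Briefly, cells in 96-well plates were exposed to five compound concentrations for 48 h, and endpoints were estimated by linear interpolation. TGI: concentration producing complete growth inhibition.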
What was measured:
Experiment in all cases: growth of human tumour cells (NCI), 48 h
[1] = tested on: SW-620 colon
[2] = tested on: MOLT-4 leukemia
[3] = tested on: UO-31 renal
[4] = tested on: T-47D breast
[5] = tested on: SK-OV-3 ovarian
[6] = tested on: SNB-19 CNS
[7] = tested on: HOP-92 NSCLC
[8] = tested on: MCF7 breast
[9] = tested on: NCI-H226 lung
[10] = tested on: IGROV1 ovarian
[11] = tested on: DU-145 prostate
[12] = tested on: HCT-15 colon
[13] = tested on: SR leukemia
[14] = tested on: CAKI-1 renal
[15] = tested on: UACC-257 melanoma
[16] = tested on: SK-MEL-5 melanoma
[17] = tested on: HOP-62 NSCLC
[18] = tested on: SK-MEL-28 melanoma
[19] = tested on: SF-539 CNS
[20] = tested on: MDA-MB-231 breast
[21] = tested on: HS 578T breast
[22] = tested on: COLO 205 colon
[23] = tested on: SF-268 CNS
[24] = tested on: A549 NSCLC
[25] = tested on: PC-3 prostate
[26] = tested on: KM12 colon
[27] = tested on: HCC-2998 colon
[28] = tested on: M14 melanoma
[29] = tested on: HCT-116 colon
[30] = tested on: OVCAR-4 ovarian
[31] = tested on: NCI/ADR-RES ovarian
[32] = tested on: ACHN renal
[33] = tested on: MDA-N
[34] = tested on: HT29 colon
[35] = tested on: SNB-75 CNS
[36] = tested on: TK-10 renal
[37] = tested on: BT-549 breast
[38] = tested on: LOX IMVI melanoma
[39] = tested on: RXF 393 renal
[40] = tested on: A498 renal
[41] = tested on: MALME-3M melanoma
[42] = tested on: 786-0 renal
[43] = tested on: SK-MEL-2 melanoma
[44] = tested on: NCI-H23 lung
[45] = tested on: OVCAR-5 ovarian
[46] = tested on: OVCAR-8 ovarian
[47] = tested on: U251 CNS
[48] = tested on: MDA-MB-435
[49] = tested on: RPMI-8226 leukemia
[50] = tested on: NCI-H460 lung
[51] = tested on: NCI-H522 lung
[52] = tested on: SF-295 CNS
[53] = tested on: SN12C renal
[54] = tested on: OVCAR-3 ovarian
[55] = tested on: K-562 leukemia
[56] = tested on: HL-60(TB) leukemia
[57] = tested on: CCRF-CEM leukemia
[58] = tested on: UACC-62 melanoma
[59] = tested on: EKVX NSCLC
[60] = tested on: DMS 273 small cell lung
[61] = tested on: DMS 114 small cell lung
[62] = tested on: LXFL 529 NSCLC
[63] = tested on: SNB-78 CNS
[64] = tested on: RXF-631 renal
[65] = tested on: M19-MEL melanoma
[66] = tested on: KM20L2 colon

CC1OC(OC2C(O[C@H]3CC[C@@]4(C)C(=CC[C@H]5[C@@H]6C[C@@H]7O[C@]8(CC[C@@H](C)CO8)[C@@H](C)[C@@H]7[C@@]6(C)CC[C@@H]54)C3)OC(CO)C(O)C2O)C(O)C(O)C1O (some centres not stated)
TGI [1]: 2310 nM
TGI [2]: > 25 µM
TGI [3]: 1980 nM
TGI [4]: 8.66 µM
TGI [5]: 6.14 µM
TGI [6]: 2380 nM
TGI [7]: 6.17 µM
TGI [8]: 4.12 µM
TGI [9]: 8.03 µM
TGI [10]: 6.08 µM
TGI [11]: 2530 nM
TGI [12]: 5.21 µM
TGI [13]: 6.71 µM
TGI [14]: 3.54 µM
TGI [15]: 4.9 µM
TGI [16]: 7.52 µM
TGI [17]: 2670 nM
TGI [18]: > 11.8 µM
TGI [19]: 4.53 µM
TGI [20]: 3.14 µM
TGI [21]: 3.85 µM
TGI [22]: 6.33 µM
TGI [23]: 5.46 µM
TGI [24]: 1760 nM
TGI [25]: 1630 nM
TGI [26]: 2190 nM
TGI [27]: 2260 nM
TGI [28]: 2440 nM
TGI [29]: 3.95 µM
TGI [30]: 2470 nM
TGI [31]: 4.64 µM
TGI [32]: 3.44 µM
TGI [33]: 6.54 µM
TGI [34]: 2370 nM
TGI [35]: 2620 nM
TGI [36]: 3.57 µM
TGI [37]: 8.31 µM
TGI [38]: 3.49 µM
TGI [39]: 3.04 µM
TGI [40]: 2980 nM
TGI [41]: 6.65 µM
TGI [42]: 2370 nM
TGI [43]: 6.21 µM
TGI [44]: 5.61 µM
TGI [45]: 6.16 µM
TGI [46]: 3.63 µM
TGI [47]: 1870 nM
TGI [48]: 2800 nM
TGI [49]: > 25 µM
TGI [50]: 2340 nM
TGI [51]: 2770 nM
TGI [52]: 2440 nM
TGI [53]: 3.27 µM
TGI [54]: 6.65 µM
TGI [55]: > 25 µM
TGI [56]: 2870 nM
TGI [57]: 1210 nM
TGI [58]: 2700 nM
TGI [59]: 6.47 µM

CC(C)N(C(=O)C12C3C4C1C1C2C3C41C(N)=O)C(C)C (configuration not stated)
TGI [1]: > 100000 nM
TGI [60]: > 100 µM
TGI [2]: > 100 µM
TGI [3]: > 100000 nM
TGI [5]: > 100 µM
TGI [6]: > 100000 nM
TGI [7]: > 100 µM
TGI [61]: > 100 µM
TGI [62]: > 100 µM
TGI [10]: > 100 µM
TGI [12]: > 100 µM
TGI [63]: > 100 µM
TGI [13]: > 100 µM
TGI [14]: > 100 µM
TGI [16]: > 100 µM
TGI [17]: > 100000 nM
TGI [19]: > 100 µM
TGI [22]: > 100 µM
TGI [23]: > 100 µM
TGI [24]: > 100000 nM
TGI [64]: > 100 µM
TGI [27]: > 100000 nM
TGI [28]: > 100000 nM
TGI [65]: > 100 µM
TGI [32]: > 100 µM
TGI [66]: > 100 µM
TGI [40]: > 100000 nM
TGI [41]: > 100 µM
TGI [42]: > 100000 nM
TGI [46]: > 100 µM
TGI [47]: > 100000 nM
TGI [51]: > 100000 nM
TGI [52]: > 100000 nM
TGI [53]: > 100 µM
TGI [54]: > 100 µM
TGI [55]: > 100 µM
TGI [57]: > 100000 nM
TGI [59]: > 100 µM

Source: PubChem BioAssay (NCI)
